Our source for the LC retention time values is the RepoRT retention time repository (doi:10.1021/acs.analchem.2c02893).

The data set in a line: RP, Thermo Scientific Acclaim RSLC 120 C18, 100 × 2.1 mm, 2.2 µm, 30 °C, 0.2 mL/min, estimated dead time 1.1 min; A: 90% water + 10% methanol + 0.01% formic acid + 5 mM ammonium formate, pH 3.61; B: methanol + 0.01% formic acid + 5 mM ammonium formate, pH 3.61; gradient (min/%B) 0/1 1/1 2/39 13/99.9 15/99.9 15.1/1 20.1/1. To be noted: stereoisomer not certain.
For `O=C(O)c1cccnc1Nc1cccc(C(F)(F)F)c1` [Niflumic acid], the LC retention time is 9.86 min.
As for `O=C1Nc2ccc([N+](=O)[O-])cc2C(c2ccccc2F)=NC1O` (stereo not drawn) [Nifoxipam], the figure is 6.58 min.
With `COC1CC(CC2CCC(C)C(C(C)C(=O)O)O2)OC2(OC(C)(C3CCC(C)(C4OC(C5OC(O)(CO)C(C)CC5C)CC4C)O3)CC2C)C1C` (stereo not drawn) [Nigericin] the figure was 13.9 min; with `CCN(CC)C(=O)c1cccnc1` [Nikethamide], 4.64 min.
In the case of `COC(=O)C1=C(C#N)NC(C)=C(C(=O)OC(C)C)C1c1cccc([N+](=O)[O-])c1` (stereo not drawn) [Nilvadipine], the LC retention time was 10.3 min.
With `O=[N+]([O-])c1cncn1CCN1CCOCC1` [Nimorazole] the figure was 4.09 min; with `COC(=O)C1=C(C)NC(C)=C(C(=O)OCC(C)C)C1c1ccccc1[N+](=O)[O-]` (stereo not drawn) [Nisoldipine], 10.6 min; with `CCN(Cc1ccc(Cl)nc1)C(=C[N+](=O)[O-])NC` [Nitenpyram], 3.9 min.
With `Nc1ccc2c(c1)C(c1ccccc1)=NCC(=O)N2` [Nitrazepam- 7-Amino] the figure was 4.78 min; with `O=C1CN=C(c2ccccc2)c2cc([N+](=O)[O-])ccc2N1` [Nitrazepam], 7.79 min.
As for `Cc1nnc2n1-c1ccc([N+](=O)[O-])cc1C(c1ccccc1)=NC2` [Nitrazolam], the figure is 6.91 min.
In the case of `O=[N+]([O-])c1ccc(Oc2ccc(Cl)cc2Cl)cc1` [Nitrofen], the LC retention time was 12.1 min.
Regarding `O=C1CN(N=Cc2ccc([N+](=O)[O-])o2)C(=O)N1` [Nitrofurantoin], the LC retention time was 4.14 min.
For `CC(C)OC(=O)c1cc(C(=O)OC(C)C)cc([N+](=O)[O-])c1` [Nitrothal-isopropyl], the LC retention time is 12 min.
As for `CNC(=C[N+](=O)[O-])NCCSCc1csc(CN(C)C)n1` [Nizatidine], the figure is 2.96 min; as for `CN1Cc2c(N)cccc2C(c2ccccc2)C1` (stereo not drawn) [Nomifensine], 5.42 min.
As for `CCC(=O)OC(Cc1ccccc1)(c1ccccc1)C(C)CNC` (stereo not drawn) [Nordextropropoxyphene], the figure is 7.84 min; as for `C#CC1(OC(C)=O)CCC2C3CCC4=CC(=O)CCC4C3CCC21C` (stereo not drawn) [Norethisterone acetate], 10.8 min; as for `C#CC1(O)CCC2C3CCC4=CC(=O)CCC4C3CCC21C` (stereo not drawn) [Norethisterone], 9.15 min.
As for `CCn1cc(C(=O)O)c(=O)c2cc(F)c(N3CCNCC3)cc21` [Norfloxacin], the figure is 4.46 min; as for `CNc1cnn(-c2cccc(C(F)(F)F)c2)c(=O)c1Cl` [Norflurazon], 8.51 min.
In the case of `C#CC1(OC(C)=O)CCC2C3CCC4=CC(=NO)CCC4C3CCC21CC` (stereo not drawn) [Norgestimate], the LC retention time is 11.9 min.
As for `C#CC1(O)CCC2C3CCC4=CC(=O)CCC4C3CCC21CC` (stereo not drawn) [Norgestrel], the figure is 10.2 min.
As for `COc1ccc2c(c1OC)C(=O)OC2C1c2c(cc3c(c2OC)OCO3)CCN1C` (stereo not drawn) [Noscapine], the figure is 6.96 min; as for `O=C(NC(=O)c1c(F)cccc1F)Nc1ccc(OC(F)(F)C(F)OC(F)(F)F)c(Cl)c1` (stereo not drawn) [Novaluron], 11.9 min; as for `O=C(NC(=O)c1c(F)cccc1F)Nc1cc(Cl)c(OC(F)(F)C(F)C(F)(F)F)c(Cl)c1F` (stereo not drawn) [Noviflumuron], 12.7 min.
As for `COC1C(OC(N)=O)C(O)C(Oc2ccc3c(O)c(NC(=O)c4ccc(O)c(CC=C(C)C)c4)c(=O)oc3c2C)OC1(C)C` (stereo not drawn) [Novobiocin], the figure is 11.2 min; as for `OC(c1ccc(F)cc1)(c1cncnc1)c1ccccc1Cl` (stereo not drawn) [Nuarimol], 9.17 min.
Turning to `CC1C=CC=CCCC=CC=CC=CC=CC(OC2OC(C)C(O)C(N)C2O)CC2OC(O)(CC(O)C(O)CCC(O)CC(O)CC(O)CC(=O)OC(C)C(C)C1O)CC(O)C2C(=O)O` (stereo not drawn) [Nystatin], the LC retention time was 10.3 min.
As for `ON=Cc1cc[n+](COC[n+]2ccc(C=NO)cc2)cc1` [Obidoxime], the figure is 3.03 min.
As for `CCCCCCCCc1ccc(OCCOCCO)cc1` [Octylphenol diethoxylates (OP2EO)_NH4 adduct], the figure is 14.1 min; as for `CCCCCCCCc1ccc(OCCO)cc1` [Octylphenol monoethoxylates (OP1EO)_NH4 adduct], 12.4 min; as for `Cc1cccc(C)c1N(C(=O)CCl)C1CCOC1=O` (stereo not drawn) [Ofurace], 7 min.
As for `Cc1cc2c(s1)Nc1ccccc1N=C2N1CCN(C)CC1` [Olanzapine], the figure is 4.99 min.
On to `CN(C)CCC=C1c2ccccc2COc2ccc(CC(=O)O)cc21` [Olopatadine], for which the LC retention time is 6.89 min.
With `O=C(O)c1cc(N=Nc2ccc(O)c(C(=O)O)c2)ccc1O` [Olsalazine] the figure was 5.66 min; with `CNC(=O)CSP(=O)(OC)OC` [Omethoate], 3.35 min; with `Cc1nccn1CC1CCc2c(c3ccccc3n2C)C1=O` (stereo not drawn) [Ondansetron], 4.98 min.
With `OCCN1CCN(CCCN2c3ccccc3C=Cc3ccccc32)CC1` [Opipramol], the LC retention time is 7.83 min.
With `CCN(CC)C(=O)SCc1ccccc1Cl` [Orbencarb] the figure was 11.3 min; with `CCCCCCCCCCCC(CC1OC(=O)C1CCCCCC)OC(=O)C(CC(C)C)NC=O` (stereo not drawn) [Orlistat (Na)], 14.6 min.
With `CNCCOC(c1ccccc1)c1ccccc1C` (stereo not drawn) [Orphenadrine-Nor (Tofenacin. Elamol)] the figure was 7.54 min; with `Cc1ccccc1C(OCCN(C)C)c1ccccc1` (stereo not drawn) [Orphenadrine], 7.44 min.
As for `CCCN(CCC)c1c([N+](=O)[O-])cc(S(N)(=O)=O)cc1[N+](=O)[O-]` [Oryzalin], the figure is 10.3 min; as for `CCC(CC)OC1C=C(C(=O)O)CC(N)C1NC(C)=O` (stereo not drawn) [Oseltamivir-carboxylate], 4.73 min; as for `CCOC(=O)C1=CC(OC(CC)CC)C(NC(C)=O)C(N)C1` (stereo not drawn) [Oseltamivir], 6.76 min.
`Cc1onc(-c2ccccc2)c1C(=O)NC1C(=O)N2C1SC(C)(C)C2C(=O)O` (stereo not drawn) [Oxacillin]: the LC retention time is 6.9 min.
With `C#CCOc1cc(-n2nc(C(C)(C)C)oc2=O)c(Cl)cc1Cl` [Oxadiargyl] the figure was 11.2 min; with `CC(C)Oc1cc(-n2nc(C(C)(C)C)oc2=O)c(Cl)cc1Cl` [Oxadiazon], 12.3 min; with `COCC(=O)N(c1c(C)cccc1C)N1CCOC1=O` [Oxadixyl], 6.29 min.
As for `CNC(=O)ON=C(SC)C(=O)N(C)C` [Oxamyl], the figure is 3.77 min.
For `Cc1cc(C)nc(NC(=O)NS(=O)(=O)c2ccccc2C(=O)OC2COC2)n1` [Oxasulfuron], the LC retention time is 6.52 min.
As for `O=c1[nH]c2ccccc2n1CCCN1CCN(C(c2ccccc2)c2ccccc2)CC1` [Oxatomide], the LC retention time is 8.42 min.
